Tested on: 188146-221-R-J1-PDC complex spheroid viability
Assay: Anticancer human tumor 188146-221-R-J1-PDC patient-derived colon adenocarcinoma cell line growth inhibition [POLQ]
Conditions: for IC50: curve of first compound; for viability, T/C: stronger effect = lower value
Procedure: Multicellular complex tumor spheroid response to Polymerase (POL) inhibitors (novobiocin, ART-558, RP6685) in combination with a variety of drugs and investigational agents in selected tumor cell lines
The POL inhibitors (novobiocin, ART-558, and RP6685) were evaluated both individually and in combination with standard of care and investigational anticancer small molecules within a complex spheroid model of solid tumors. . Complex spheroids include a stromal component modeled by human endothelial cells (HUVEC) and fibroblasts modeled by human mesenchymal stem cells (MSCs). The concentration ranges selected for each drug and investigational agent were based upon clinically achievable concentrations if the clinical Cmax of the agent was known.
Compounds. The drugs and investigational agents: novobiocin (NSC847541), ART-558 (NSC835418), RP-6685 (NSC848927), peposertib (NSC802822), ceralasertib (NSC780249), elimusertib (NSC800525), camonsertib (NSC841442), AZD-1390 (NSC803789), olaparib (NSC753686), talazoparib (NSC767125), rucaparib (NSC756644), sotorasib (NSC818433), MRTX-1133 (NSC836407), SN-38 (NSC673596), topotecan (NSC609699), epotoside (NSC141540), doxorubicin (NSC123127), gemcitabine (NSC613327), 5-fluorouracil (NSC19893), paclitaxel (NSC125973), vemurafenib (NSC761431), MSA-2 (NSC828583), SN-011 (NSC837082), adavosertib (NSC754352), prexasertib (NSC758257), carboplatin (NSC241240) and oxaliplatin (NSC266046), were obtained from the National Cancer Institute (NCI) Developmental Therapeutics Program Chemical Repository (21). The FDA-approved anticancer drug set is available from the Developmental Therapeutics Program at https://dtp.cancer.gov/organization/dscb/obtaining/. […] The stock solutions were prepared in dimethyl sulfoxide (DMSO, Sigma-Aldrich, St. Louis, MO, cat. D2650), except for the platinum compounds which were prepared in saline (Quality Biological, Gaithersburg, MD, cat. 114-055-101), at 800-fold the tested concentration and stored at -70 degrees C prior to their use. All drugs and investigational agents were tested over a range starting from a high concentration at or near the clinical Cmax and decreasing in half-log increments. If the clinical Cmax for an agent had not been determined, the highest concentration tested was 10 microM, except for SN-38, which was tested at a high concentration of 1 microM.
Cell Culture. All cells were maintained in an incubator at 37 degrees C and 5% CO2 with 95% humidity. The PDC lines were cultured according to standard operating procedures established by the NCI PDMR (https://pdmr.cancer.gov). Table 3 of the manuscript, lists the cell lines along with the number of the three cell types plated to form the mct-spheroids and media for tumor cell growth. After thawing, all PDC lines, except 997537-175-T-J1-PDC and 415267-285-R-J2-PDC, were cultured in Matrigel-coated flasks prepared with a working solution of 1X Ham's F-12 nutrient mix, without supplementation (Thermo Fisher Scientific, cat. 11765054), 100 U/mL penicillin-streptomycin (Thermo Fisher Scientific, cat. 15140122), and 2.5% Matrigel (Corning Inc., Corning, NY, cat. 354248) for the first three passages. The two PDC lines 997537-175-T-J1-PDC and 415267-285-R-J2-PDC were cultured on uncoated flasks. The 857933-349-R-J2-PDC line was cultured in 6C/Colon 1B media containing advanced DMEM/F-12 (Thermo Fisher Scientific, cat. 12634028), 10 mM HEPES (Thermo Fisher Scientific, cat. 15630080), 1X GlutaMAX supplement (Thermo Fisher Scientific, cat. 35050061), 0.1 mg/mL primocin (InvivoGen, San Diego, CA, cat. ant-pm-2), 10% defined fetal bovine serum, heat inactivated (HyClone Laboratories Inc., Logan, UT, cat. SH30070.03HI), 50% L-WRN conditioned media (ATCC, cat. CRL-3276), 1.25 mM N-Acetyl-L-cysteine (Sigma-Aldrich, cat. A9165), 10 mM nicotinamide (Sigma-Aldrich, cat. N0636), 1X B-27 supplement (Thermo Fisher Scientific, cat. 17504044), 1X N-2 supplement (Thermo Fisher Scientific, cat. […]

[1] = second compound 0.0316 µM, first compound 0.0316 µM
[2] = second compound 0.0316 µM, first compound 0.1 µM
[3] = second compound 0.0316 µM, first compound 0.316 µM
[4] = second compound 0.0316 µM, first compound 1 µM
[5] = second compound 0.0316 µM, first compound 3.16 µM
[6] = second compound 0.0316 µM, first compound 10 µM
[7] = second compound 0.1 µM, first compound 0.0316 µM
[8] = second compound 0.1 µM, first compound 0.1 µM
[9] = second compound 0.1 µM, first compound 0.316 µM
[10] = second compound 0.1 µM, first compound 1 µM
[11] = second compound 0.1 µM, first compound 3.16 µM
[12] = second compound 0.1 µM, first compound 10 µM
[13] = second compound 0.316 µM, first compound 0.0316 µM
[14] = second compound 0.316 µM, first compound 0.1 µM
[15] = second compound 0.316 µM, first compound 0.316 µM
[16] = second compound 0.316 µM, first compound 1 µM
[17] = second compound 0.316 µM, first compound 3.16 µM
[18] = second compound 0.316 µM, first compound 10 µM
[19] = second compound 1 µM, first compound 0.0316 µM
[20] = second compound 1 µM, first compound 0.1 µM
[21] = second compound 1 µM, first compound 0.316 µM
[22] = second compound 1 µM, first compound 1 µM
[23] = second compound 1 µM, first compound 3.16 µM
[24] = second compound 1 µM, first compound 10 µM
[25] = second compound 3.16 µM, first compound 0.0316 µM
[26] = second compound 3.16 µM, first compound 0.1 µM
[27] = second compound 3.16 µM, first compound 0.316 µM
[28] = second compound 3.16 µM, first compound 1 µM
[29] = second compound 3.16 µM, first compound 3.16 µM
[30] = second compound 3.16 µM, first compound 10 µM
[31] = second compound 10 µM, first compound 0.0316 µM
[32] = second compound 10 µM, first compound 0.1 µM
[33] = second compound 10 µM, first compound 0.316 µM
[34] = second compound 10 µM, first compound 1 µM
[35] = second compound 10 µM, first compound 3.16 µM
[36] = second compound 10 µM, first compound 10 µM
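Note: spheroids exposed to compounds for seven days.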
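Throughout, for viability, T/C: 100% = DMSO vehicle control viability.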

CC1COCCN1c1cc(C2(O)CC3CCC(C2)O3)c2cnn(-c3ccn[nH]3)c2n1 (stereo unspecified) + Cc1cccc(N(C)C(=O)C2C(O)CCN2c2nc(C)cc(C(F)(F)F)c2C#N)c1
IC50 (second compound 0.0316 µM): 0.422 µM
IC50 (second compound 0.1 µM): 0.322 µM
IC50 (second compound 0.316 µM): 0.365 µM
IC50 (second compound 1 µM): 0.426 µM
IC50 (second compound 3.16 µM): 0.259 µM
IC50 (second compound 10 µM): 0.19 µM
viability, T/C [1]: 83.2%
viability, T/C [2]: 67.8%
viability, T/C [3]: 61.5%
viability, T/C [4]: 27.6%
viability, T/C [5]: 19.2%
viability, T/C [6]: 7.58%
viability, T/C [7]: 95.3%
viability, T/C [8]: 75.7%
viability, T/C [9]: 51.1%
viability, T/C [10]: 26.6%
viability, T/C [11]: 16.8%
viability, T/C [12]: 7.79%
viability, T/C [13]: 91.9%
viability, T/C [14]: 80.2%
viability, T/C [15]: 52.4%
viability, T/C [16]: 27.4%
viability, T/C [17]: 17.4%
viability, T/C [18]: 9.2%
viability, T/C [19]: 89.2%
viability, T/C [20]: 71.9%
viability, T/C [21]: 56.1%
viability, T/C [22]: 36%
viability, T/C [23]: 19.2%
viability, T/C [24]: 7.67%
viability, T/C [25]: 94.8%
viability, T/C [26]: 68.4%
viability, T/C [27]: 46.4%
viability, T/C [28]: 27.3%
viability, T/C [29]: 22.8%
viability, T/C [30]: 8.6%
viability, T/C [31]: 80.7%
viability, T/C [32]: 60.3%
viability, T/C [33]: 43.4%
viability, T/C [34]: 24%
viability, T/C [35]: 23.9%
viability, T/C [36]: 9.35%

CCc1cc2c(N3CCc4c(cc(Cn5ccnc5)cc4-c4cn(C)nc4C(F)(F)F)C3=O)cc(C)nc2c(OC)n1 + Cc1cccc(N(C)C(=O)C2C(O)CCN2c2nc(C)cc(C(F)(F)F)c2C#N)c1
IC50 (second compound 0.0316 µM): 7.64 µM
IC50 (second compound 0.1 µM): 6.71 µM
IC50 (second compound 0.316 µM): 6.91 µM
IC50 (second compound 1 µM): 7.65 µM
IC50 (second compound 3.16 µM): 6.58 µM
IC50 (second compound 10 µM): 5.43 µM
viability, T/C [1]: 105%
viability, T/C [2]: 90.4%
viability, T/C [3]: 87%
viability, T/C [4]: 84.9%
viability, T/C [5]: 65.7%
viability, T/C [6]: 44.5%
viability, T/C [7]: 95.9%
viability, T/C [8]: 90.9%
viability, T/C [9]: 96%
viability, T/C [10]: 86.4%
viability, T/C [11]: 68.4%
viability, T/C [12]: 40.3%
viability, T/C [13]: 112%
viability, T/C [14]: 94%
viability, T/C [15]: 106%
viability, T/C [16]: 98.2%
viability, T/C [17]: 67%
viability, T/C [18]: 41.9%
viability, T/C [19]: 93.8%
viability, T/C [20]: 87.3%
viability, T/C [21]: 107%
viability, T/C [22]: 88.5%
viability, T/C [23]: 72.9%
viability, T/C [24]: 43.1%
viability, T/C [25]: 101%
viability, T/C [26]: 100%
viability, T/C [27]: 94.4%
viability, T/C [28]: 81.9%
viability, T/C [29]: 65.3%
viability, T/C [30]: 41.4%
viability, T/C [31]: 97.2%
viability, T/C [32]: 95.7%
viability, T/C [33]: 96.7%
viability, T/C [34]: 71.1%
viability, T/C [35]: 64.9%
viability, T/C [36]: 36.6%

O=C(c1cc(Cc2n[nH]c(=O)c3ccccc23)ccc1F)N1CCN(C(=O)C2CC2)CC1 + Cc1cccc(N(C)C(=O)C2C(O)CCN2c2nc(C)cc(C(F)(F)F)c2C#N)c1
IC50 (second compound 0.0316 µM): > 10 µM
IC50 (second compound 0.1 µM): > 10 µM
IC50 (second compound 0.316 µM): > 10 µM
IC50 (second compound 1 µM): > 10 µM
IC50 (second compound 3.16 µM): > 10 µM
IC50 (second compound 10 µM): > 10 µM
viability, T/C [1]: 109%
viability, T/C [2]: 105%
viability, T/C [3]: 108%
viability, T/C [4]: 92.8%
viability, T/C [5]: 93.9%
viability, T/C [6]: 73.9%
viability, T/C [7]: 108%
viability, T/C [8]: 103%
viability, T/C [9]: 101%
viability, T/C [10]: 101%
viability, T/C [11]: 89.5%
viability, T/C [12]: 88.8%
viability, T/C [13]: 105%
viability, T/C [14]: 102%
viability, T/C [15]: 95.6%
viability, T/C [16]: 101%
viability, T/C [17]: 90.2%
viability, T/C [18]: 77.8%
viability, T/C [19]: 109%
viability, T/C [20]: 106%
viability, T/C [21]: 96.7%
viability, T/C [22]: 103%
viability, T/C [23]: 87.7%
viability, T/C [24]: 78.4%
viability, T/C [25]: 89.5%
viability, T/C [26]: 102%
viability, T/C [27]: 106%
viability, T/C [28]: 86.7%
viability, T/C [29]: 93.1%
viability, T/C [30]: 76.9%
viability, T/C [31]: 99.8%
viability, T/C [32]: 90.1%
viability, T/C [33]: 96.3%
viability, T/C [34]: 98.2%
viability, T/C [35]: 95.6%
viability, T/C [36]: 82.1%

Source: PubChem BioAssay AID1963851 (Molecular Pharmacology Branch, DTP, NCI, 2024)
